# Results published in patent US8461120B2, “Macrocyclic compounds pounds and methods of use thereof” (Synovo GmbH, priority 2004, dated 2013).
# Columns and labels:
# Type in all cases: cell-based
# IFNg = assay: Suppression of pro-inflammatory responses in isolated cells: IFNg; conditions: for activity at 8 µM: read-out: IFNg (% control) at 8 μM
# NO = assay: Suppression of pro-inflammatory responses in isolated cells: NO; conditions: for Potency in NO suppression vs. Dexamethasone: relative to Dexamethasone; for activity at 8 µM: read-out: NO (% control) at 8 μM
# KC = assay: LPS-stimulated mouse whole blood, production of the chemotactic cytokine KC (bioplex); conditions: Neutrophil, 1.5 h; fresh mouse whole blood stimulated by LPS, incubated 90 minutes; read-out: EC50 of modulation of the neutrophil migration factor KC
# Method: FIG. 2. is a graph showing the response of murine blood cells to varying concentrations of a compound of the invention (see Example 31) based on the production of the chemotactic cytokine “KC”. Fresh mouse whole blood was stimulated by LPS and incubated for 90 minutes. KC was quantified by bioplex.
Compound,Potency in NO suppression vs. Dexamethasone (NO),activity at 8 µM (IFNg) [%],activity at 8 µM (NO) [%],also measured
"CC[C@H]1OC(=O)[C@H](C)[C@@H](OC2CC(C)(OC)C(O)C(C)O2)[C@H](C)[C@@H](OC2OC(C)CC(NC)C2O)C(C)(O)C[C@@H](C)C(=O)[C@H](C)[C@@H](O)C1(C)O (stereo partly shown) [desmethyl erythromycin, reference compound]",–,–,–,IFNg (% control) at 8 μM (IFNg): 6.3 % control; NO (% control) at 8 μM (NO): 37.1 % control
CC[C@H]1OC(=O)[C@H](C)[C@@H](O[C@H]2C[C@@](C)(OC)[C@@H](O)[C@H](C)O2)[C@H](C)[C@@H](O[C@@H]2O[C@H](C)CC(N(C)CC(O)CNCC(OC)OC)[C@H]2O)[C@](C)(O)C[C@@H](C)CN(C)[C@H](C)[C@@H](O)[C@]1(C)O (stereo partly shown) [Example 35],0.5,–,–,–
CCCCCCCCNCC(O)CN(C)C1C[C@@H](C)O[C@@H](O[C@@H]2[C@@H](C)[C@H](O[C@H]3C[C@@](C)(OC)[C@@H](O)[C@H](C)O3)[C@@H](C)C(=O)O[C@H](CC)[C@@](C)(O)[C@H](O)[C@@H](C)N(C)C[C@H](C)C[C@@]2(C)O)[C@@H]1O (stereo partly shown) [Example 31],–,4.4,4.7,EC50 (KC): ~100 nM
CCCCN(CCCC)CCCNCC(O)CN(C)C1C[C@@H](C)O[C@@H](O[C@@H]2[C@@H](C)[C@H](O[C@H]3C[C@@](C)(OC)[C@@H](O)[C@H](C)O3)[C@@H](C)C(=O)O[C@H](CC)[C@@](C)(O)[C@H](O)[C@@H](C)N(C)C[C@H](C)C[C@@]2(C)O)[C@@H]1O (stereo partly shown) [Example 49],–,4.3,48.2,–
CC[C@H]1OC(=O)[C@H](C)[C@@H](O[C@H]2C[C@@](C)(OC)[C@@H](O)[C@H](C)O2)[C@H](C)[C@@H](O[C@@H]2O[C@H](C)CC(N(C)CC(O)COc3cccc(O)c3)[C@H]2O)[C@](C)(O)C[C@@H](C)CN(C)[C@H](C)[C@@H](O)[C@]1(C)O (stereo partly shown) [Example 59],–,96.9,99.2,–
CC[C@H]1OC(=O)[C@H](C)[C@@H](O[C@H]2C[C@@](C)(OC)[C@@H](O)[C@H](C)O2)[C@H](C)[C@@H](O[C@@H]2O[C@H](C)CC(N(C)CC(O)COC(=O)CNC(=O)OC(C)(C)C)[C@H]2O)[C@](C)(O)C[C@@H](C)CN(C)[C@H](C)[C@@H](O)[C@]1(C)O (stereo partly shown) [Example 63],–,4.4,3.9,–
CC[C@H]1OC(=O)[C@H](C)[C@@H](O[C@H]2C[C@@](C)(OC)[C@@H](O)[C@H](C)O2)[C@H](C)[C@@H](O[C@@H]2O[C@H](C)CC(N(C)CC(O)CN3CCN(C=O)CC3)[C@H]2O)[C@](C)(O)C[C@@H](C)CN(C)[C@H](C)[C@@H](O)[C@]1(C)O (stereo partly shown) [Example 56],0.6,–,–,–
CC[C@H]1OC(=O)[C@H](C)[C@@H](O[C@H]2C[C@@](C)(OC)[C@@H](O)[C@H](C)O2)[C@H](C)[C@@H](O[C@@H]2O[C@H](C)CC(N(C)CC(O)COc3ccc(B(O)O)cc3)[C@H]2O)[C@](C)(O)C[C@@H](C)CN(C)[C@H](C)[C@@H](O)[C@]1(C)O (stereo partly shown) [Example 61],–,15.6,74.2,–
"CCC1OC(=O)C(C)C(OC2CC(C)(OC)C(O)C(C)O2)C(C)C(OC2OC(C)CC(N(C)CC3CO3)C2O)C(C)(O)CC(C)C(=O)C(C)C(O)C1(C)O (stereo not shown) [Example 67, 3′-N-demethyl-3′-N-(oxiranylmethyl)erythromycin]",–,–,–,IFNg (% control) at 8 μM (IFNg): 6.0 % control; NO (% control) at 8 μM (NO): 70.0 % control
CC[C@H]1OC(=O)[C@H](C)[C@@H](O[C@H]2C[C@@](C)(OC)[C@@H](O)[C@H](C)O2)[C@H](C)[C@@H](O[C@@H]2O[C@H](C)CC(N(C)CC(O)COc3ccc(OC)cc3)[C@H]2O)[C@](C)(O)C[C@@H](C)CN(C)[C@H](C)[C@@H](O)[C@]1(C)O (stereo partly shown) [Example 60],–,5.7,33.7,–
"C[C@@H]1C[C@H]2[C@@H]3CCC4=CC(=O)C=C[C@]4(C)[C@@]3(F)[C@@H](O)C[C@]2(C)[C@@]1(O)C(=O)CO [Dexamethasone, reference compound]",–,4.3,3.4,–
descladinosyltetraacetal azithromycin,0.6,–,–,–
CC[C@H]1OC(=O)[C@H](C)[C@@H](O[C@H]2C[C@@](C)(OC)[C@@H](O)[C@H](C)O2)[C@H](C)[C@@H](O[C@@H]2O[C@H](C)CC(N(C)CC(O)CNCCCCN)[C@H]2O)[C@](C)(O)C[C@@H](C)CN(C)[C@H](C)[C@@H](O)[C@]1(C)O (stereo partly shown) [Example 29],0.6,–,–,–
CC[C@H]1OC(=O)[C@H](C)C2(O)O[C@@](C)(C[C@@H](C)CN(C)[C@H](C)[C@@H](O)[C@]1(C)O)[C@H](O[C@@H]1O[C@H](C)CC(N(C)CC(O)COC(=O)c3cnc4ccccc4c3)C1O)[C@H]2C (stereo partly shown) [Example 75],–,88.8,96.8,–
CC[C@H]1OC(=O)[C@H](C)[C@@H](O[C@H]2C[C@@](C)(OC)[C@@H](O)[C@H](C)O2)[C@H](C)[C@@H](O[C@@H]2O[C@H](C)CC(N(C)CC(O)COc3ccc(C(=O)OC)cc3)[C@H]2O)[C@](C)(O)C[C@@H](C)CN(C)[C@H](C)[C@@H](O)[C@]1(C)O (stereo partly shown) [Example 62],–,5.3,63.4,–
CC[C@H]1OC(=O)[C@H](C)[C@@H](OC2C[C@@](C)(OC)[C@@H](O)[C@H](C)O2)C[C@@H](OC2O[C@H](C)C[C@H](N(C)CC(O)CNc3ncc(C)s3)[C@H]2O)[C@](C)(O)C[C@@H](C)C(=O)[C@H](C)[C@@H](O)[C@]1(C)O (stereo partly shown) [Example 68],–,4.3,2.9,–
CC[C@H]1OC(=O)[C@H](C)[C@@H](O[C@H]2C[C@@](C)(OC)[C@@H](O)[C@H](C)O2)[C@H](C)[C@@H](O[C@@H]2O[C@H](C)CC(N(C)CC(O)CNc3ncc(C)s3)[C@H]2O)[C@](C)(O)C[C@@H](C)CN(C)[C@H](C)[C@@H](O)[C@]1(C)O (stereo partly shown) [Example 41],0.5,–,–,–
CCCN(CCO)CC(O)CN(C)C1C[C@@H](C)O[C@@H](O[C@@H]2[C@@H](C)[C@H](O[C@H]3C[C@@](C)(OC)[C@@H](O)[C@H](C)O3)[C@@H](C)C(=O)O[C@H](CC)[C@@](C)(O)[C@H](O)[C@@H](C)N(C)C[C@H](C)C[C@@]2(C)O)[C@@H]1O (stereo partly shown) [Example 50],–,4,3.9,–
CC[C@H]1OC(=O)[C@H](C)[C@@H](O[C@H]2C[C@@](C)(OC)[C@@H](O)[C@H](C)O2)[C@H](C)[C@@H](O[C@@H]2O[C@H](C)CC(N(C)CC(O)CNc3cc(C)ccn3)[C@H]2O)[C@](C)(O)C[C@@H](C)CN(C)[C@H](C)[C@@H](O)[C@]1(C)O (stereo partly shown) [Example 42],0.8,–,–,–
CC[C@H]1OC(=O)[C@H](C)[C@@H](O[C@H]2C[C@@](C)(OC)[C@@H](O)[C@H](C)O2)[C@H](C)[C@@H](O[C@@H]2O[C@H](C)CC(N(C)CC(O)COC(=O)c3nccc4ccccc34)[C@H]2O)[C@](C)(O)C[C@@H](C)CN(C)[C@H](C)[C@@H](O)[C@]1(C)O (stereo partly shown) [Example 65],–,30.9,77.6,–
CCCCC(CC)CNCC(O)CN(C)C1C[C@@H](C)O[C@@H](O[C@@H]2[C@@H](C)[C@H](O[C@H]3C[C@@](C)(OC)[C@@H](O)[C@H](C)O3)[C@@H](C)C(=O)O[C@H](CC)[C@@](C)(O)[C@H](O)[C@@H](C)N(C)C[C@H](C)C[C@@]2(C)O)[C@@H]1O (stereo partly shown) [Example 33],–,3.8,3.2,–
CC[C@H]1OC(=O)[C@H](C)[C@@H](O[C@H]2C[C@@](C)(OC)[C@@H](O)[C@H](C)O2)[C@H](C)[C@@H](O[C@@H]2O[C@H](C)CC(N(C)CC(O)CN3CCC(O)CC3)[C@H]2O)[C@](C)(O)C[C@@H](C)CN(C)[C@H](C)[C@@H](O)[C@]1(C)O (stereo partly shown) [Example 47],0.5,–,–,–
CCCCCNCC(O)CN(C)C1C[C@@H](C)O[C@@H](O[C@@H]2[C@@H](C)[C@H](O[C@H]3C[C@@](C)(OC)[C@@H](O)[C@H](C)O3)[C@@H](C)C(=O)O[C@H](CC)[C@@](C)(O)[C@H](O)[C@@H](C)N(C)C[C@H](C)C[C@@]2(C)O)[C@@H]1O (stereo partly shown) [Example 32],–,3.7,6.8,–
